Source: patent publication US10357481B2 (MERCK SHARP & DOHME CORP., priority 2015, dated 2019)

Biological target: T1, human PDE2A1 (Homo sapiens, UniProt O00408)
T1 construct: GST; purchased BPS Bioscience (San Diego, Calif.) 60020; host or cells: insect cells
Experiment: IMAP FP PDE selectivity panel, human PDE2A1
Format: biochemical
Conditions: Lab B; read-out: Human PDE2 Ki (nM) Lab B
Outline: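 IMAP FP read-out, run at room temperature in parallel with PDE1–11: enzyme at 20% substrate conversion, 50 nM FAM-cAMP containing 1000 nM cGMP, Tris pH 7.2/MgCl2/DTT buffer. Compounds as ten 3-fold dilutions. Reaction 60 min, stopped with binding reagent for 1 h before polarization measurement.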

T1 sequence (O00408 1-920 isoform O00408-2): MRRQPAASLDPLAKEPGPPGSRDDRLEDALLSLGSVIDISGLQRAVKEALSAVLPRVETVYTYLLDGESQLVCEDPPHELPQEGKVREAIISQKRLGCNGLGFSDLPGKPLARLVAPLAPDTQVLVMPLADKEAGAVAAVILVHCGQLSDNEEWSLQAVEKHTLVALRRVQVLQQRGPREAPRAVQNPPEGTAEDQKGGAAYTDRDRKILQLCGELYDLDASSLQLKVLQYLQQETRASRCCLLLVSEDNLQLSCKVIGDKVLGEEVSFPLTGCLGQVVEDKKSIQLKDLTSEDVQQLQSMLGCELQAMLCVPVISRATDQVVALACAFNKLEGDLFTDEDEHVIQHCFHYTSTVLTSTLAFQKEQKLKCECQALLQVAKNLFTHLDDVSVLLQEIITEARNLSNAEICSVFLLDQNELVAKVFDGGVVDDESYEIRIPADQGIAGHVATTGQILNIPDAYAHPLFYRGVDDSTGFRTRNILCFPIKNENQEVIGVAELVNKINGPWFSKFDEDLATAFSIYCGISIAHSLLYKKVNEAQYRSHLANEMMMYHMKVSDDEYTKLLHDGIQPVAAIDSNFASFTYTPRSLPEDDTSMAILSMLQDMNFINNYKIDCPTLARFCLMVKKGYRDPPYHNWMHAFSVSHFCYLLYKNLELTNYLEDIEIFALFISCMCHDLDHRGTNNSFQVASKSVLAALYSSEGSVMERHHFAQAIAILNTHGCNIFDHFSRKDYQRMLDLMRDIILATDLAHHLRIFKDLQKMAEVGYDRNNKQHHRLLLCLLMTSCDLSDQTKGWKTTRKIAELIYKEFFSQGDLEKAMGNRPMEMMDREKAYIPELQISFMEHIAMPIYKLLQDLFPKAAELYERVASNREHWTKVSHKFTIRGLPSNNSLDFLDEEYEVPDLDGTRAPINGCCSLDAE

SMILES | Ki [nM]
Cc1cc(N[C@@H](c2ccc(C(F)(F)F)c(F)c2)C(C)(C)C)n2ncnc2c1 [Example 264, (R)—N-{1-[3-Fluoro-4-(trifluoromethyl)phenyl]-2,2-dimethylpropyl}-7-methyl-[1,2,4]triazolo[1,5-a]pyridin-5-amine] | 292
Fc1cc(C2(Nc3cc(C(F)(F)F)cc4ncnn34)CC2)ccc1C(F)(F)F [Example 276, N-(1-(3-fluoro-4-(trifluoromethyl)phenyl)cyclopropyl)-7-(trifluoromethyl)-[1,2,4]triazolo[1,5-a]pyridin-5-amine] | 68
OCCCc1cc(NC2(c3ccc(C(F)(F)F)c(F)c3)CC2)n2ncnc2n1 [Example 245, 3-(7-((1-(3-Fluoro-4-(trifluoromethyl)phenyl)cyclopropyl)amino)-[1,2,4]triazo[1,5-a]pyrimidin-5-yl)propan-1-ol] | 204
Cc1cc(N[C@@H](c2ccc(S(F)(F)(F)(F)F)cc2)C(C)C)n2ncnc2n1 [Example 22, 5-Methyl-N-{(1R)-2-methyl-1-[4-(pentafluoro-λ^6-sulfanyl)phenyl]propyl}[1,2,4]triazolo[1,5-a] pyrimidin-7-amine] | 13
Cc1cc(NC2(c3ccc(S(F)(F)(F)(F)F)cc3)CC2)n2ncnc2n1 [Example 58, 5-Methyl-N-{1-[4-(pentafluoro-λ^6-sulfanyl)phenyl]cyclopropyl}[1,2,4] triazolo[1,5-a]pyrimidin-7-amine] | 52
CCCc1nc2nc(C)cc(N[C@@H](c3ccc(C(F)(F)F)c(F)c3)C(C)(C)C)n2n1 [Example 204, (R)-N-(1-(3-Fluoro-4-(trifluoromethyl)phenyl)-2,2-dimethylpropyl)-5-methyl-2-propyl-[1,2,4]triazolo [1,5-a]pyrimidin-7-amine] | 17
Cc1cc(NC2(c3ccc(C(F)(F)F)c(F)c3)CC2)n2nc(C)nc2n1 [Example 192, N-(1-(3-Fluoro-4-(trifluoromethyl)phenyl)cyclopropyl)-2,5-dimethyl-[1,2,4]triazolo [1,5-a]pyrimidin-7-amine] | 91
Cc1cc(N[C@H](C)c2ccc(C(F)(F)F)c(F)c2)n2ncnc2n1 [Example 3, N-{(1R)-1-[3-Fluoro-4-(trifluoromethyl)phenyl]ethyl}-5-methyl[1,2,4]triazolo[1,5-a] pyrimidin-7-amine] | 115
Cc1cc(N[C@@H](c2ccc(C(F)(F)F)c(F)c2)C(C)(C)C)n2nc(C3CC3)nc2n1 [Example 205, (R)-2-Cyclopropyl-N-(1-(3-fluoro-4-(trifluoromethyl)phenyl)-2,2-dimethylpropyl)-5-methyl-[1,2,4]triazolo [1,5-a]pyrimidin-7-amine] | 24
Cc1cc(NC(c2ccc(OC(F)(F)F)c(F)c2)C(C)(C)O)n2nc(C)nc2n1 (single isomer, unassigned) [Example 132, (1S or R)-1-[(2,5-Dimethyl[1,2,4]triazolo[1,5-a]pyrimidin-7-yl)amino]-1-[3-fluoro-4-(trifluoromethoxy)phenyl]-2-methylpropan-2-ol] | > 2960
CC(C)(O)C(Nc1cc(C2CC2)nc2ncnn12)c1ccc(S(F)(F)(F)(F)F)cc1 (single isomer, unassigned) [Example 144, (1S or R)-1-[(5- Cyclopropyl [1,2,4]triazolo [1,5-a]pyrimidin-7-yl)amino]-2-methyl-1-[4-(pentafluoro-λ^6-sulfanyl)phenyl]propan-2-ol] | > 2960
CN(C)c1cc(N[C@@H](c2ccc(C(F)(F)F)c(F)c2)C(C)(C)C)n2ncnc2n1 [Example 242, (R)-N^7-(1-(3-Fluoro-4-(trifluoromethyl)phenyl)-2,2-dimethylpropy1)-N^5,N^5-dimethyl-[1,2,4]triazolo [1,5-a]pyrimidine-5,7-diamine] | 616
COCC(Nc1cc(C)nc2ncnn12)c1ccc(C(F)(F)F)c(F)c1 (single isomer, unassigned) [Example 210, (S)- or (R)-N-(1-(3-Fluoro-4-(trifluoromethyl)phenyl)-2-methoxyethyl)-5-methyl-[1,2,4]triazolo [1,5-a]pyrimidin-7-amine] | 583
